Laboratory results: ChEMBL document CHEMBL4118066, “QSAR-driven design, synthesis and discovery of potent chalcone derivatives with antitubercular activity” (Eur J Med Chem, 2017)
≈ marks a conversion by molar mass, not a printed value.

Tests used:
[1] = system: Mycobacterium tuberculosis; experiment: microbe, parasite or virus in culture; format: functional; details: H37Rv ATCC 27294, 168 h
Description: Antitubercular activity against Mycobacterium tuberculosis H37Rv ATCC 27294 after 7 days under normoxic condition by microplate Alamar blue assay

[2] = system: Mycobacterium tuberculosis; experiment: Antitubercular activity against Mycobacterium tuberculosis H37Rv ATCC 27294 treated for 10 days under hypoxic condition followed by 28 hrs of normoxic recovery; format: functional
[3] = system: Mycolicibacterium smegmatis; experiment: Antimycobacterial activity against Mycobacterium smegmatis ATCC MC2155 after 7 days under normoxic condition by microplate Alamar blue assay; format: functional; details: str. MC2 155, 168 h
in vitro = details: monkey
Description: Selectivity index, ratio of IC50 for African green monkey Vero cells to MIC90 for Mycobacterium tuberculosis H37Rv ATCC 27294 under normoxic condition

Candida albicans = experiment: Antifungal activity against Candida albicans ATCC 90028 after 36 to 48 hrs; format: functional
Escherichia coli = experiment: Antibacterial activity against Escherichia coli ATCC 25922 after 16 to 20 hrs; format: functional
Staphylococcus aureus = experiment: Antibacterial activity against Staphylococcus aureus ATCC 29213 after 16 to 20 hrs; format: functional
[4] = system: Mycobacteroides abscessus; experiment: Antimycobacterial activity against Mycobacterium abscessus ATCC 19977 after 7 days under normoxic condition by microplate Alamar blue assay; format: functional; details: ATCC 19977, 168 h
Mycobacteroides chelonae = experiment: Antimycobacterial activity against Mycobacterium chelonae ATCC 35752 after 7 days under normoxic condition by microplate Alamar blue assay; format: functional; details: ATCC 35752, 168 h
Mycobacterium marinum = experiment: Antimycobacterial activity against Mycobacterium marinum ATCC 927 after 7 days under normoxic condition by microplate Alamar blue assay; format: functional; details: ATCC 927, 168 h
Mycobacterium avium = experiment: Antimycobacterial activity against Mycobacterium avium ATCC 15769 after 7 days under normoxic condition by microplate Alamar blue assay; format: functional; details: ATCC 15769, 168 h
Mycobacterium kansasii = experiment: Antimycobacterial activity against Mycobacterium kansasii ATCC 12478 after 7 days under normoxic condition by microplate Alamar blue assay; format: functional; details: ATCC 12478, 168 h

SMILES | MIC90 [1] | MIC90 [2] | MIC90 [3] | selectivity ratio (in vitro; vero) | MIC90 (Candida albicans) | MIC90 (Escherichia coli) | MIC90 (Staphylococcus aureus) | MIC90 [4] | MIC90 (Mycobacteroides chelonae) | MIC90 (Mycobacterium marinum) | MIC90 (Mycobacterium avium) | MIC90 (Mycobacterium kansasii) | selectivity ratio (in vitro; Vero cells)
CO[C@H]1/C=C/O[C@@]2(C)Oc3c(C)c(O)c4c(O)c(c(/C=N/N5CCN(C)CC5)c(O)c4c3C2=O)NC(=O)/C(C)=C\C=C\[C@H](C)[C@H](O)[C@@H](C)[C@@H](O)[C@@H](C)[C@H](OC(C)=O)[C@@H]1C [RIFAMPIN] | 0.05 µM (≈ 0.0411 µg/mL) | 0.19 µM (≈ 0.156 µg/mL) | > 10 µM | 2000 |  |  |  |  |  |  |  |  | 
CN(C)c1ccc(/C=C/C(=O)c2ccc(-c3ccccc3)cc2)cc1 | > 10 µM | > 10 µM | > 10 µM |  | > 10 µM | > 10 µM | > 10 µM | > 10 µM | > 10 µM | > 10 µM | > 10 µM | > 10 µM | 
CSc1ccc(C(=O)/C=C/c2ccco2)cc1 | > 10 µM | > 10 µM | > 10 µM |  | > 10 µM | > 10 µM | > 10 µM | > 10 µM | > 10 µM | > 10 µM | > 10 µM | > 10 µM | 
CSc1ccc(C(=O)/C=C/c2ccc([N+](=O)[O-])s2)cc1 | 0.45 µM (≈ 0.137 µg/mL) | 5.96 µM (≈ 1.82 µg/mL) | > 10 µM |  | > 10 µM | > 10 µM | > 10 µM | > 10 µM | > 10 µM | > 10 µM | 6.89 µM (≈ 2.1 µg/mL) | 3.86 µM (≈ 1.18 µg/mL) | 222
O=C(/C=C/c1ccco1)c1ccc(N2CCCCC2)cc1 | > 10 µM | > 10 µM | > 10 µM |  | > 10 µM | > 10 µM | > 10 µM | > 10 µM | > 10 µM | > 10 µM | > 10 µM | > 10 µM | 
O=C(/C=C/c1ccc([N+](=O)[O-])o1)c1ccc(-n2ccnc2)cc1 | 1.05 µM (≈ 0.325 µg/mL) | 6.94 µM (≈ 2.15 µg/mL) | > 10 µM |  | > 10 µM | 3.18 µM (≈ 0.984 µg/mL) | 0.34 µM (≈ 0.105 µg/mL) |  |  |  |  |  | 94
C[C@@H]1[C@H](O)[C@@H](C)/C=C/C=C/C=C/C=C/C=C/C=C/C=C/[C@H](O[C@@H]2O[C@H](C)[C@@H](O)[C@H](N)[C@@H]2O)C[C@@H]2O[C@](O)(C[C@@H](O)C[C@@H](O)[C@H](O)CC[C@@H](O)C[C@@H](O)CC(=O)O[C@H]1C)C[C@H](O)[C@H]2C(=O)O [AMPHOTERICIN B] |  |  |  |  | < 0.004 µM |  |  |  |  |  |  |  | 
CCCCc1ccc(C(=O)/C=C/c2ccc([N+](=O)[O-])s2)cc1 | 0.54 µM (≈ 0.17 µg/mL) | 5.56 µM (≈ 1.75 µg/mL) | > 10 µM |  | > 10 µM | > 10 µM | > 10 µM | > 10 µM | > 10 µM | > 10 µM | 2.14 µM (≈ 0.675 µg/mL) | 1.73 µM (≈ 0.546 µg/mL) | 81
O=C(/C=C/c1ccc([N+](=O)[O-])o1)c1ccc(N2CCNCC2)cc1 | 0.27 µM (≈ 0.0884 µg/mL) | 9.67 µM (≈ 3.17 µg/mL) | > 10 µM |  | > 10 µM | > 10 µM | > 10 µM |  |  |  |  |  | 359
O=C(/C=C/c1ccc([N+](=O)[O-])o1)c1ccc(N2CCOCC2)cc1 | 0.81 µM (≈ 0.266 µg/mL) | 9.85 µM (≈ 3.23 µg/mL) | > 10 µM |  | > 10 µM | > 10 µM | 1.19 µM (≈ 0.391 µg/mL) |  |  |  |  |  | 123
Cc1ccccc1C(=O)/C=C/c1ccc([N+](=O)[O-])o1 | 0.57 µM (≈ 0.147 µg/mL) | 4.59 µM (≈ 1.18 µg/mL) | 9.5 µM (≈ 2.44 µg/mL) |  | 6.36 µM (≈ 1.64 µg/mL) | > 10 µM | 1.09 µM (≈ 0.28 µg/mL) | > 10 µM | > 10 µM | > 10 µM | 3.04 µM (≈ 0.782 µg/mL) | 1.16 µM (≈ 0.298 µg/mL) | 41
CCCCc1ccc(C(=O)/C=C/c2ccc([N+](=O)[O-])o2)cc1 | 1.31 µM (≈ 0.392 µg/mL) | 4.21 µM (≈ 1.26 µg/mL) | > 10 µM |  | > 10 µM | > 10 µM | 2.23 µM (≈ 0.667 µg/mL) | > 10 µM | > 10 µM | > 10 µM | 3.07 µM (≈ 0.919 µg/mL) | 0.58 µM (≈ 0.174 µg/mL) | 57
O=C(/C=C/c1ccc([N+](=O)[O-])s1)c1ccc(C2CCCCC2)cc1 | > 10 µM | 5.75 µM (≈ 1.96 µg/mL) | > 10 µM |  | > 10 µM | > 10 µM | > 10 µM | > 10 µM | > 10 µM | > 10 µM | 5.99 µM (≈ 2.05 µg/mL) | 9.26 µM (≈ 3.16 µg/mL) | 
O=C(/C=C/c1ccc(Cl)s1)c1ccc(-n2ccnc2)cc1 | 9.29 µM (≈ 2.92 µg/mL) | 9.75 µM (≈ 3.07 µg/mL) | > 10 µM |  | > 10 µM | > 10 µM | > 10 µM | > 10 µM | > 10 µM | > 10 µM | > 10 µM | 9.17 µM (≈ 2.89 µg/mL) | 
